# Results published in patent publication US20250360138A1 (priority 2022, published 2025).
# pEC50: −log10 of the molar value. Entries after “also recorded” stand apart in the source; their conditions may differ. Like-named read-outs stand apart in the source and are kept apart here.
# What was measured:
# [1] = test system: G. lamblia GS-clone H7 trophozoites; experiment: G. lamblia GS-clone H7 trophozoite growth, ATP-based bioluminescence (BacTiter-Glo) primary screen and dose response; format: cell-based; settings: read-out: Anti-Giardia EC50
# HEK293T = experiment: Mammalian cytotoxicity counter screen, luminescent ATP viability assay; format: cell-based, human; settings: toxicity in mammalian cell cultures versus G. lamblia GS-clone 7 trophozoites
# Procedure: Mammalian cytotoxicity assays. Mammalian cell lines were used for counter screening for general cytotoxicity of hit compounds from the primary screen: human embryonic kidney cells (HEK293T; ATCC CRL-3216) was used in a luminescent ATP assay for detection of cell viability.
# Data analysis. Relative luminescence units (RLU) values were analyzed in Genedata Screener (v13.0-Standard). RLU was normalized to neutral controls minus inhibitors (DMSO-treated wells minus metronidazole-treated wells). For single-point primary assay plates, an additional run-wise median correction was applied to reduce screen artifacts, whereas no corrections were applied to triplicate dose response plates. For the mammalian cytotoxicity assays, RLU was uploaded into Genedata Screener, and the data was normalized to DMSO-treated wells minus puromycin-treated wells.
# [2] = test system: G. lamblia WB6 (Assemblage A); experiment: Cell growth inhibition against G. lamblia WB6; format: cell-based, Giardia lamblia
# Procedure: (§1) Giardia lamblia culture. G. lamblia WB6 strain, G. lamblia CBG99 strain, metronidazole-resistant strain 713-M3 and G. lamblia (Lambl) Alexeieff trophozoites (GS-clone H7; ATCC 50581) used for the primary screening were maintained in modified TYI-S-33 medium (ATCC 2695) and assayed as earlier described (Keister, 1983, Trans R Soc Trop Med Hyg 77: 487-488). Subsequent assays, including the mouse model of infection, used the G. lamblia click beetle green (CBG99) strain which was grown and assayed as previously described (Michaels et al., 2020, J Antimicrob Chemother 75:1218-1227; and Keister, 1983, Trans R Soc Trop Med Hyg 77:487-488).
# [3] = test system: metronidazole resistant 713-M3 strain; experiment: Cell growth inhibition against metronidazole resistant 713-M3 strain; format: cell-based, Giardia lamblia
# Procedure: as §1
# G. lamblia CBG99 = experiment: Luciferase reporter acute murine Giardia infection model, whole animal IVIS imaging; format: in vivo, Giardia lamblia
# Excerpt: The method relies on a stable constitutive luciferase reporter, CBG99 (Click beetle green), that correlates with parasite load in vitro and in vivo. […] Only mice with confirmed infections are used in experiments.
# All animal experiments were approved by the Institutional Animal Care and Use Committees at the University of Washington.
# The method relies on a stable constitutive reporter, CBG99, that correlates with total parasite load.
# [4] = Resazurin-based viability assay, CRL-8155; format: cell-based; settings: human, CRL-8155 lymphocytic cells; CRL-8155 cells
# Procedure: (§2) Experimental details for the assays were earlier described (Love et al., 2017, PLoS Negl Trop Dis 11:e0005373). Compounds in the follow-up assays were also tested for the inhibition of CRL-8155 (human lymphocytic cells and human hepatocellular carcinoma cells (HepG2; ATCC HB-8065) in a resazurin-based viability assay as indicators of potential host cell toxicity. Assays were performed as previously reported (Vidadala et al., 2014, Eur J Med Chem 74:562-57).
# [5] = Resazurin-based viability assay, HepG2; format: cell-based; settings: human, HepG2 hepatocellular carcinoma cells
# Procedure: as §2
# [6] = Mouse pharmacokinetics, plasma concentration by LC-MS/MS; format: in vivo; settings: for half-life: read-out: average half-life (t1/2); for Cmax: mouse plasma
# Procedure: Methods for pharmacokinetic studies and analysis of mouse plasma compound concentrations by liquid chromatography with tandem mass spectrometry (LC-MS/MS) have previously been described (Hulverson et al., 2017, J Infect Dis 215:1275-1284; Ojo et al., 2012, J Clin Invest 122:2301-2305; and Schaefer et al., 2016, J Infect Dis 214:1856-1864). The pK studies was performed in groups of 3 mice per compound. […] Blood samples collected at intervals between 0.5 and 24 hours were separated and extracted with acetonitrile for measurement of compound concentrations by combined liquid chromatography-electrospray mass spectrometry (LC/ES-MS).
# [7] = Clinical evaluation of overall health of mice in PK and efficacy studies; format: in vivo
# [8] = Mouse pharmacokinetics, plasma concentration by LC-MS/MS; format: in vivo; settings: infected mice, all treatment groups, days 6 and 7 post-infection (24 and 48 hours after first dose)
# [9] = adult humans, daily oral doses over 7 days; cited from earlier work
# [10] = G. lamblia GS-clone H7 (Assemblage B) trophozoites, 48 hours, dose response
smiles,measurement,setting,value
CCN(CC)CCn1c(=O)c(Cc2ccc(OC)cc2)nc2ccccc21 [caroverine],pEC50,"[1]; Giardia duodenalis, G. lamblia GS-clone H7 (Assemblage B) trophozoites, 48 hours, dose response",4.86
same,"Selectivity index (SI), CC50/EC50",HEK293T,> 2
CS(=O)(=O)Nc1ccc(C(=O)O[C@@H](Cc2c(Cl)c[n+]([O-])cc2Cl)c2ccc(OC(F)F)c(OCC3CC3)c2)cc1OCC1CC1 [CHF-6001],"Selectivity index (SI), CC50/EC50",HEK293T,> 12
CCCN(CCC)c1ccc(N=Nc2ccccc2C(=O)O)cc1 [propyl red],pEC50,[1]; [10],5.24
CC(=O)C[C@H]1CCCCN1 [pelletierine],pEC50,[1]; [10],4.69
same,pEC50,[2],< 4.60
same,pEC50,"[3]; metronidazole resistant 713-M3, read-out: EC50",< 4.60
CS(=O)(=O)OCCN(CCBr)c1c(C(=O)NCCOP(=O)(O)O)cc([N+](=O)[O-])cc1[N+](=O)[O-] [PR-104],pEC50,[1]; [10],5.70
Cc1ncc([N+](=O)[O-])n1CCO [metronidazole],clearance of infection,"G. lamblia CBG99; mice, 20 mg/kg QD×3 days",remained infected after treatment
C=CC(=O)N[C@H]1CN(c2nc(Nc3cn(C)nc3OC)c3ncn(C)c3n2)C[C@@H]1F [Mavelertinib],pEC50,"[1]; Giardia duodenalis, 48 h",5.63
same,pEC50,[2]; Giardia duodenalis,6.57
same,pEC50,[3]; Giardia duodenalis,7.15
same,CC50,[4],> 80 µM
same,CC50,[5],> 80 µM
same,clearance of infection,"G. lamblia CBG99; IFN-γ-knockout mice, 1 mg/kg QD×4 days (days 6-9 p.i.), 1 mg/kg",None of the 1 mg/kg QD×4 days mice were relieved of their infection; also recorded: did not clear the infection after 4 doses
same,efficacy in the acute murine Giardia infection model,G. lamblia CBG99; dosed as low as 5 mg/kg or as high as 50 mg/kg,efficacious; also recorded: effectively clears Giardia infection
same,clearance of infection,"G. lamblia CBG99; mice, 2.5 mg/kg QD×2 days",one of four mice remained infected
same,clearance of infection (luminescence signal),"G. lamblia CBG99; mice, 5 mg/kg QD×2 days, 5 mg/kg",cleared the infection below the background signal; also recorded: absence of luminescence signal
same,clearance of infection (luminescence signal),"G. lamblia CBG99; mice, 20 mg/kg QD×2 days, 20 mg/kg",cleared the infection below the background signal; also recorded: absence of luminescence signal
same,clearance of infection,"G. lamblia CBG99; mice, 50 mg/kg QD for 3 days, oral",appeared to clear the infection
same,clearance of infection (luminescence signal),"G. lamblia CBG99; mice, 50 mg/kg QD×1 day, 50 mg/kg",cleared the infection below the background signal; also recorded: absence of luminescence signal
same,parasite rebound after treatment,"G. lamblia CBG99; mice, one week after the last therapeutic dose",parasites did not rebound
same,clearance of infection,"G. lamblia CBG99; mice, one- and two-day dosing of 50 mg/kg QD",all treated mice were cleared of infection and remained clear a week after dosing
same,half-life,"[6]; in vivo, mouse, single oral 5 mg/kg",3.99 h
same,Cmax,[6]; single oral 5 mg/kg,0.63 µM
same,Cmax,[6]; single oral 20 mg/kg,3.5 µM
same,Cmax,[6]; single oral 50 mg/kg,9.3 µM
same,plasma level,"[6]; mouse, 1 mg/kg QD, 1 mg/kg",barely detectable in the plasma of one mouse at 0.5 hours post dose and below the limit of detection at all subsequent time points
same,plasma concentration at 24 h post dose,"[6]; mouse, all dosage groups, single dose",cleared from plasma by 24 hours; also recorded: below the detection limit
same,AUC,"[6]; mouse, single oral 5 mg/kg",89 µmol·min/L
same,Clearance,"[6]; mouse, single oral 5 mg/kg",0.015 L/min
same,AUC,"[6]; mouse, single oral 20 mg/kg",300 µmol·min/L
same,Clearance,"[6]; mouse, single oral 20 mg/kg",0.004 L/min
same,AUC,"[6]; mouse, single oral 50 mg/kg",812 µmol·min/L
same,Clearance,"[6]; mouse, single oral 50 mg/kg",0.0016 L/min
same,Tmax,"[6]; plasma, oral, mouse, all doses",0.5 h
same,half-life,"[6]; plasma, mouse, single oral 20 mg/kg",2.91 h
same,half-life,"[6]; plasma, mouse, single oral 50 mg/kg",2.09 h
same,signs of toxicity in mice,[7],no sign of toxicity; also recorded: no observable mavelertinib induced toxicology potentials
same,plasma trough levels,[8],below the limit of quantitation
same,daily oral dose causing diarrhea and skin toxicities as most common adverse events,[9],> 150 mg
